22 compounds from patent publication US20200317660A1, “Quinazolinone Compound and Application Thereof” (LUOXIN PHARMACEUTICAL (SHANGHAI) CO., LTD., priority 2017, published 2020) can be followed below.

The target of one test is T1, PI3Kα (Homo sapiens, UniProt P42336).
T1 construct: purchased Millipore 14-602-K
In words: In vitro test of enzyme activity (ADP-Glo lipokinase), PI3K alpha. It counts as biochemical. Conditions: 40 μM ATP, 50 μM PIP2:3PS, 120 min. How it is done: (§1) 1. In Vitro Test of Enzyme Activity
(§2) The lipokinase reaction was carried out under the conditions of a suitable substrate and ATP, followed by two steps to detect the kinase activity with the ADP-Glo™ kit. The first step was terminating the kinase reaction, wherein the remaining ATP was completely removed and only ADP was left; the second step was adding kinase detection reagents to convert ADP to ATP, accompanied by luciferin/luciferase reaction. Finally, the output value of fluorescence value was converted into kinase activity.
(§3) Experimental materials and equipments:
(§4) 2. Kit: ADP-Glo™ Lipokinase and PIP2:3PS Kit (Promega # V1792)
(§5) The kit contains: 1 mM PIP2:3PS, 10× lipid dilution buffer, 1 M magnesium chloride, 10 mM ATP, 10 mM ADP, ADP-Glo reagent, detection buffer and detection substrate.
(§6) 3. Reaction plate: OptiPlate-384, white and transparent (PerkinElmer #6007299).
(§7) 1. 10× reaction buffer: 500 mM HEPES, pH 7.5, 500 mM NaCl, 9 mM MgCl2; BSA: 10% stock solution, homemade.
(§8) 2. Final test system conditions: 1× reaction system: 50 mM HEPES, 50 mM NaCl, 3 mM MgCl2, 0.01% BSA (freshly prepared on the day of the experiment), 1% DMSO (v/v)+/−compound
(§9) 3. Reaction system: 3 μL mixture of the enzyme and the substrate (1:1)+2 μL ATP/MgCl2 mixture+5 μL ADP-Glo reagent+10 μL detection reagent.
(§10) The detailed experimental procedures are as follows:
(§11) 1. Compound dilution: 50 nL 100×compound/DMSO was transferred to the test well plate with Echo. • For PI3Kα, the compound was diluted three-fold from the highest concentration of 0.111 mM for a total of 10 concentrations. • For PI3Kβ/PI3Kδ/PI3Kγ, the compound was three-fold diluted from the highest concentration of 1.11 mM for a total of 10 concentrations.
(§12) (1) The compound to be tested was prepared and 50 nL of 100 plus compound solution or DMSO was added to the corresponding well plate.
(§13) (2) 3.33 plate reaction buffer was prepared.
(§14) (3) 3.33 solution PIP2:3PS was prepared, PIP2:3PS was thawed for at least 1 minute before use.
(§15) (4) 2.5 mM containing 5.25 mM MgCl2 was prepared.
(§16) (5) 3.33 PI3Kα/PI3Kβ/PI3Kδ/PI3Kγ solution was prepared.
(§17) (6) The lipokinase solution and the PIP2:3PS solution were mixed in a volume ratio of 1:1.
(§18) (7) 3.33: lipokinase buffer and PIP2:3PS solution were mixed in a volume ratio of 1:1.
(§19) (8) 3 μL of buffer solution and PIP2:3PS were added to the first and the second columns of the well plate.
(§20) (9) 3 μL of the mixed solution of the enzyme and PIP2:3PS was added to the wells except the first and the second columns, centrifuged for 10 seconds (1000 rpm) and incubated at 23° C. for 20 minutes.
(§21) (10) 2 μL […] was added and well was shaken.
(§22) (11) The well plate was covered and shaken for about 30 s, then the well plate was incubated at 23° C. for 2 hours.
(§23) (12) 5 μL of ADP-Glo reagent containing 10 mM MgCl2 was added.
(§24) (13) The well plate was centrifuged at 1000 rpm for 10 seconds, and the well plate was then covered, shaken for about 30 seconds, and incubated at 23° C. for 60 minutes.
(§25) (14) 10 μL kinase detection reagent was added.
(§26) (15) The well plate was centrifuged at 1000 rpm for 10 seconds, and then incubated at 23° C. for 60 minutes.
(§27) (16) The fluorescence value was measured on the Envision instrument.

Another test concerns the target T2, PI3Kβ (Homo sapiens, UniProt P42338).
T2 construct: purchased Promega V1751
The test is described as follows: In vitro test of enzyme activity (ADP-Glo lipokinase), PI3K beta. It counts as biochemical. Conditions: 40 μM ATP, 50 μM PIP2:3PS, 120 min. The protocol:
as §1, §2, §3, §4, §5, §6, §7, §8, §9, §10, §11, §12, §13, §14, §15, §16, §17, §18, §19, §20, §21, §22, §23, §24, §25, §26, §27

The target in the next test is T3, PI3Kδ (Homo sapiens, UniProt O00329).
T3 construct: purchased Millipore 14-604-K
In words: In vitro test of enzyme activity (ADP-Glo lipokinase), PI3K delta. The class given is biochemical. Particulars: 40 μM ATP, 50 μM PIP2:3PS, 120 min. The protocol:
as §1, §2, §3, §4, §5, §6, §7, §8, §9, §10, §11, §12, §13, §14, §15, §16, §17, §18, §19, §20, §21, §22, §23, §24, §25, §26, §27

Another test concerns the target T4, PI3Kγ (Homo sapiens, UniProt P48736).
T4 construct: purchased Millipore 14-558-K
In words: In vitro test of enzyme activity (ADP-Glo lipokinase), PI3K gamma. It counts as biochemical. Particulars: 25 μM ATP, 50 μM PIP2:3PS, 120 min. The protocol: as §1, §2, §3, §4, §5, §6, §7, §8, §9, §10, §11, §12, §13, §14, §15, §16, §17, §18, §19, §20, §21, §22, §23, §24, §25, §26, §27

Test [1] has as its system phosphorylation of PI3K downstream protein Akt in MCF7 cells. In words: In vitro test of cells activity: ELISA of Akt phosphorylation in MCF7 cells. It counts as cell-based. Conditions: 2 h compound, insulin 10 μg/mL stimulation, pAkt ELISA, read-out: MCF7 Cell IC50. The protocol: 2. In vitro test of cells activity
By the method of ELISA, the inhibition level of the test compound on the phosphorylation of PI3K downstream protein Akt in the signaling pathway was determined in MCF7 cells line to reflect the cells activity of the compound.
Cell culture medium: complete cell culture medium (RPMI 1640+10% serum+1% L-glutamine+1% double antibody)
Serum-free medium (without serum, RPMI 1640+1% L-glutamine+1% double antibody)
The detailed procedures areas follows:
(1) MCF7 cells (ATCC® HTB-22™) were inoculated into a 96-well plate at 100 μL of cell complete medium per well (2.5*10^4 cells per well), and the cells were incubated at 37° C. and 5% CO2 for 24 hours.
(2) The complete cell culture medium was replaced with 100 μL of serum-free medium, and incubated for starvation overnight.
(3) The compound was prepared (The initial concentration of the compound is 1 mM, which was subjected to a three-fold dilution in 10 concentrations, and the compound of each concentration was then diluted 100-fold with serum-free medium). 25 μL of the diluted compound was added to the cells orifice plate.
(4) The cells were incubated at 37° C. and 5% CO2 for 2 hours.
(5) The cells in the well plate were stimulated with 10 μg/mL insulin (Sigma # I9278-5 mL), incubated for 30 minutes, and then centrifuged at 1000 rpm for 5 minutes at room temperature.
(6) 250 μL of 1× balanced salt solution (Invitrogen, #14065-056, 4° C., containing 1 mM/L Na3VO4) was added to each well to wash the cells once.
(7) 100 μL of lysis buffer (trimethylolaminomethane hydrochloride, Invitrogen, #15567-1000 ml) was added to each well, shaken at 4° C. for 60 minutes, and then centrifuged at 4000 rpm for 4 minutes.
(8) The following procedures were carried out according to the instructions of ELISA kit (TGR BioSciences # EKT002).

T3 sequence (O00329 whole entry): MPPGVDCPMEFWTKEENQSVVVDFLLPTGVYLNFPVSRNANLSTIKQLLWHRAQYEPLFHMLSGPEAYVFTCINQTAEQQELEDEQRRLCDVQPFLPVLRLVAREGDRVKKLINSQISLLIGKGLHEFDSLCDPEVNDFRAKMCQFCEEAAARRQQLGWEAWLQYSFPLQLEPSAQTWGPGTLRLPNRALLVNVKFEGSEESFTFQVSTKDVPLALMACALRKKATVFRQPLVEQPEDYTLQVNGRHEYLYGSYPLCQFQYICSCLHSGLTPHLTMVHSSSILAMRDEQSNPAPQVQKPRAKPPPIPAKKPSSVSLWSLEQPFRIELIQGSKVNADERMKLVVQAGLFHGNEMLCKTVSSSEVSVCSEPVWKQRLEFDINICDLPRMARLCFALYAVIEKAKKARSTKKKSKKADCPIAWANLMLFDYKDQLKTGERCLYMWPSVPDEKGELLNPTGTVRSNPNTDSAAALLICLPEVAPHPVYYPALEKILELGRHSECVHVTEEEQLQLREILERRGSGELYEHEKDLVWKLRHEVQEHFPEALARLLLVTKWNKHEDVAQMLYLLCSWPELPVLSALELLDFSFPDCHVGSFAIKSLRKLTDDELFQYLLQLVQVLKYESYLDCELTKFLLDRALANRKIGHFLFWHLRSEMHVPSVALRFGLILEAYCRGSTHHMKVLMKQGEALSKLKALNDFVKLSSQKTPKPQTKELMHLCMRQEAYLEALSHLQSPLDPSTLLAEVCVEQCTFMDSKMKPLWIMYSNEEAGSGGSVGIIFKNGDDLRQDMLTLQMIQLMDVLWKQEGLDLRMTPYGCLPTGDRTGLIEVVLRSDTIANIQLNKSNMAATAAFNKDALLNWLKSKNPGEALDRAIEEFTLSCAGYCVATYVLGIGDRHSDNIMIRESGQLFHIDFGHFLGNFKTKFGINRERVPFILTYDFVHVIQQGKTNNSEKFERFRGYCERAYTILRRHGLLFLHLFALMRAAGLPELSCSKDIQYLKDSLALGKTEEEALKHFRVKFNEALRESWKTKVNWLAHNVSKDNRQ
T3 sequence (P27986 whole entry partner): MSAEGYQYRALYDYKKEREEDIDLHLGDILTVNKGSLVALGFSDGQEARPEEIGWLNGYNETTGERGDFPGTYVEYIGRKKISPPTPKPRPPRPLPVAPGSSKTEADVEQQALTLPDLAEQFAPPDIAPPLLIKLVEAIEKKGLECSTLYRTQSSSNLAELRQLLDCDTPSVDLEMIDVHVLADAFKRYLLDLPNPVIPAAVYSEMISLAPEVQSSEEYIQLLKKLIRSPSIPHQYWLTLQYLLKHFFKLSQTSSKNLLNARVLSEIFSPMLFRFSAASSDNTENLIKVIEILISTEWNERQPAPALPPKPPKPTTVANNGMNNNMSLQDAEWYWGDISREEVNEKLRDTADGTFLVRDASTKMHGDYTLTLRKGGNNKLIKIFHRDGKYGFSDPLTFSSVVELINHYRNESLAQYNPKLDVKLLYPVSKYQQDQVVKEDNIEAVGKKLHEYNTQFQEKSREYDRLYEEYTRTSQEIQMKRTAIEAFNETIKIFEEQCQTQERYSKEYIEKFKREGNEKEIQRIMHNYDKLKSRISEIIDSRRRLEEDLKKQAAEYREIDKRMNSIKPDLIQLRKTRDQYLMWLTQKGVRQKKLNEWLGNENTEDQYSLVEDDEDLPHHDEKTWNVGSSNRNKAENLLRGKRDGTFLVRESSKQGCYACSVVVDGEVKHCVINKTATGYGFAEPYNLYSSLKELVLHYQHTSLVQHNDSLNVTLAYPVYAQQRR
T1 sequence (P42336 whole entry): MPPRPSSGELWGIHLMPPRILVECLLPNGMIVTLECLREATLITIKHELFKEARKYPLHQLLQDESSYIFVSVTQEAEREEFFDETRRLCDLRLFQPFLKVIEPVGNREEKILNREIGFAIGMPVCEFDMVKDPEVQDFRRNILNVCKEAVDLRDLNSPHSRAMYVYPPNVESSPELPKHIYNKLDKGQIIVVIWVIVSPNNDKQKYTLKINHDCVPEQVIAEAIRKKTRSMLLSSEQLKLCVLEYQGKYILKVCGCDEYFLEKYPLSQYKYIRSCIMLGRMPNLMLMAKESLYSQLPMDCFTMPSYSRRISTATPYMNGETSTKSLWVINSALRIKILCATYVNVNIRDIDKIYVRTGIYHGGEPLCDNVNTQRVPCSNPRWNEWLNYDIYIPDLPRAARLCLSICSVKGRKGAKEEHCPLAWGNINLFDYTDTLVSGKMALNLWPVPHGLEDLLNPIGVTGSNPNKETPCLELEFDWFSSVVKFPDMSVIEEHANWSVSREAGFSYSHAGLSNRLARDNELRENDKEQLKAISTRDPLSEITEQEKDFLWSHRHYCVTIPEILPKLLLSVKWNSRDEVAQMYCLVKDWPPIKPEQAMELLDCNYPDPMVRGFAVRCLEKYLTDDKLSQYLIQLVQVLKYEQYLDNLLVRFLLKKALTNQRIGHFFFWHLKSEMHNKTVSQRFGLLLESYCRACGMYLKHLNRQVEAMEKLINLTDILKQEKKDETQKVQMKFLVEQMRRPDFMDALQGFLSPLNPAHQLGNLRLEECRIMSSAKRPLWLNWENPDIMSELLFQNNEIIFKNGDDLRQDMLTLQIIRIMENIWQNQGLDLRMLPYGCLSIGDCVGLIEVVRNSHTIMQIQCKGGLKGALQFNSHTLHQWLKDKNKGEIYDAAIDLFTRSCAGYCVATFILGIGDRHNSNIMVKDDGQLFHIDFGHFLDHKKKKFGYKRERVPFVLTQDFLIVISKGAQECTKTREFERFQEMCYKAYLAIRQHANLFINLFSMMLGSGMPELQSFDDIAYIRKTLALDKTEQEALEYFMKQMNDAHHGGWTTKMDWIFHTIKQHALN
T1 sequence (P27986 whole entry partner): as the sequence (P27986 whole entry partner) above
T4 sequence (P48736 whole entry): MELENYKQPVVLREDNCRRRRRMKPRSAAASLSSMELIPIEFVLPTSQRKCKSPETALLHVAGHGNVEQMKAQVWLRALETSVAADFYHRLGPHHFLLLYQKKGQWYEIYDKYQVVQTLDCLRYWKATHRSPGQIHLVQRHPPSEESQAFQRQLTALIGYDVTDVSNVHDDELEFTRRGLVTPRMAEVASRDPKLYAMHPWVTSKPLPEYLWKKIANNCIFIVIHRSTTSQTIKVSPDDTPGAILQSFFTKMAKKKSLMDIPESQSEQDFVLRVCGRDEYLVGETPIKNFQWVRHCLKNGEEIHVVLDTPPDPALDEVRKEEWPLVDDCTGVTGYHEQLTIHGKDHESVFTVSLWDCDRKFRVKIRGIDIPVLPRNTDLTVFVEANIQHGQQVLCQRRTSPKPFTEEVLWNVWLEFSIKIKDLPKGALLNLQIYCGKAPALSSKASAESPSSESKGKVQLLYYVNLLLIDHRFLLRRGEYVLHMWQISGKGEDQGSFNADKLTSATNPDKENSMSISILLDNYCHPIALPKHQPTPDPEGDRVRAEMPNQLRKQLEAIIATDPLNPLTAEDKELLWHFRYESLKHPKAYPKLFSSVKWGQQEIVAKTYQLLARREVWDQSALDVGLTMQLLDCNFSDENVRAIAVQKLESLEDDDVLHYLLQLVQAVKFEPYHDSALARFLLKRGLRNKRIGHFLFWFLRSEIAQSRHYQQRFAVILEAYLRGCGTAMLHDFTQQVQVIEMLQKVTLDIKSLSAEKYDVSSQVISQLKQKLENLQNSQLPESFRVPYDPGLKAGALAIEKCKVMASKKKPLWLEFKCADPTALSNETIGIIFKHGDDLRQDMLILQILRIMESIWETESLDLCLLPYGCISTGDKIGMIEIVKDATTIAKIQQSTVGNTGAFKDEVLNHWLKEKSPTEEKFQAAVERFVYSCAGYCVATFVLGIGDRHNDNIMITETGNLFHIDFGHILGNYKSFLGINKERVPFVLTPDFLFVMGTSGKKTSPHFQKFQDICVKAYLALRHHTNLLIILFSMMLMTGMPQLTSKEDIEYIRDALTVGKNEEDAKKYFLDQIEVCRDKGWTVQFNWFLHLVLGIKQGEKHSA
T2 sequence (P42338 whole entry): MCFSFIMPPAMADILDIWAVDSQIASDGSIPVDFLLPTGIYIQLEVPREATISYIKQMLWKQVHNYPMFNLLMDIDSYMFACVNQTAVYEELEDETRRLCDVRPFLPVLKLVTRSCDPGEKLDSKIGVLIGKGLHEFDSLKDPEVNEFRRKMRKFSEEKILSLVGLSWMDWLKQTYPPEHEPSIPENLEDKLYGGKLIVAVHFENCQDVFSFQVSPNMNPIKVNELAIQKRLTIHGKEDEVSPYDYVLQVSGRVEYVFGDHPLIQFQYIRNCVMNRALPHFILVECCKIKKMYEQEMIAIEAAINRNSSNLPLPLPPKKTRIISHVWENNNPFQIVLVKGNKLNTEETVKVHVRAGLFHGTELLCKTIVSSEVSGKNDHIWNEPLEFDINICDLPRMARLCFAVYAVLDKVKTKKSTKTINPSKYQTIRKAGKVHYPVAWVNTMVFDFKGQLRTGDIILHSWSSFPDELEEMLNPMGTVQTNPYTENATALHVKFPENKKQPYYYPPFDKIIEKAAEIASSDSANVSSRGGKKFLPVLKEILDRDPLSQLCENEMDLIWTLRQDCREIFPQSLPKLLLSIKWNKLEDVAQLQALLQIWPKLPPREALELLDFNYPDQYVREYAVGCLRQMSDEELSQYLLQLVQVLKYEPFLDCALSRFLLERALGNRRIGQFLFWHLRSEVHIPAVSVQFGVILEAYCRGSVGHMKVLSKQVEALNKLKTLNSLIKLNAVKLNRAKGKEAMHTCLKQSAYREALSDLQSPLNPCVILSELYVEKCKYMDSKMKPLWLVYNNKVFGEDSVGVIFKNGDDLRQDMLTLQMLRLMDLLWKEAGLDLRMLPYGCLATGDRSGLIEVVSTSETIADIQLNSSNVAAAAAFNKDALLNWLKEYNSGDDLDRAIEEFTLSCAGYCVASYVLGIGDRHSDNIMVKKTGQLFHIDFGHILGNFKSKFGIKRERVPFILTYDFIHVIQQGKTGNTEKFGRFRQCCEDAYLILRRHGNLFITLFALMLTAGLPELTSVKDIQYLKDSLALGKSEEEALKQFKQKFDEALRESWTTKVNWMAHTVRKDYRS
T2 sequence (P27986 whole entry partner): as the sequence (P27986 whole entry partner) above

Regarding `CNC(=O)C(C)Cn1cnc2ccc(-c3cnc(C)c(NS(=O)(=O)c4sc(C)nc4C)c3)cc2c1=O` (single isomer, unassigned) [WX034], the concentration for half-maximal inhibition (IC50) amounted to 0.71 nM against PI3Kα, 554 nM against PI3Kβ, 11.6 nM at PI3Kδ and 29.9 nM against PI3Kγ.
The matching figures for `CNC(=O)C(C)Cn1cnc2ccc(-c3cnc(C)c(NS(=O)(=O)c4sc(C)nc4C)c3)cc2c1=O` (single isomer, unassigned) [WX035]: 1.57 nM, 158 nM, 7.3 nM and 19.6 nM.
As to `CCC(CC)NC(=O)C(C)Cn1cnc2ccc(-c3cnc(OC)c(NS(=O)(=O)c4ccc(F)cc4Cl)c3)cc2c1=O` (single isomer, unassigned) [WX056], the IC50 against PI3Kα was found to be 19.6 nM; on PI3Kβ, 5080 nM; at PI3Kδ it was 61 nM; against PI3Kγ, 155 nM.
The matching figures for `CCC(CC)NC(=O)C(C)Cn1cnc2ccc(-c3cnc(OC)c(NS(=O)(=O)c4ccc(F)cc4Cl)c3)cc2c1=O` (single isomer, unassigned) [WX057]: 57.2 nM, 963 nM, 28.4 nM and 48.1 nM.
Take `COc1ncc(-c2ccc3ncn(CC(C)C(=O)NCC(F)(F)F)c(=O)c3c2)cc1NS(=O)(=O)c1ccc(F)cc1Cl` (single isomer, unassigned) [WX059]: the IC50 stood at 11.2 nM on PI3Kα, 391 nM on PI3Kβ, 13.2 nM on PI3Kδ and 14.2 nM against PI3Kγ.
The matching figures for `CNC(=O)C(C)Cn1cnc2ccc(-c3cnc(CO)c(NS(=O)(=O)c4ccc(F)cc4Cl)c3)cc2c1=O` (single isomer, unassigned) [WX062]: 30 nM, greater than 10000 nM, 538 nM and 374 nM.
The matching figures for `CNC(=O)C(C)Cn1cnc2ccc(-c3cnc(CO)c(NS(=O)(=O)c4ccc(F)cc4Cl)c3)cc2c1=O` (single isomer, unassigned) [WX063]: 71.4 nM, 7230 nM, 336 nM and 318 nM.
For `COCCNC(=O)C(C)Cn1cnc2ccc(-c3cnc(OC)c(NS(=O)(=O)c4ccc(F)cc4Cl)c3)cc2c1=O` (single isomer, unassigned) [WX064] the same measures were 6.8 nM, 365 nM, 9.15 nM and 16.4 nM.
On to `COc1ncc(-c2ccc3ncn(CC(C)C(=O)NCCF)c(=O)c3c2)cc1NS(=O)(=O)c1ccc(F)cc1Cl` (single isomer, unassigned) [WX066], for which the concentration for half-maximal inhibition (IC50) against PI3Kα was 5.26 nM; against PI3Kβ, 181 nM; against PI3Kδ, 7.78 nM; at PI3Kγ, 9.25 nM.
As to `CNC(=O)C(C)Cn1cnc2ccc(-c3cnc(OC)c(NS(=O)(=O)c4cc(Cl)c(F)cc4F)c3)cc2c1=O` (single isomer, unassigned) [WX095], the concentration for half-maximal inhibition (IC50) against PI3Kα came out at 4.77 nM; at PI3Kβ, 390 nM; at PI3Kδ it was 29.6 nM; at PI3Kγ it was 68.3 nM.
As to `CNC(=O)C(C)Cn1cnc2c(F)cc(-c3cnc(OC)c(NS(=O)(=O)c4ccc(F)cc4Cl)c3)cc2c1=O` (single isomer, unassigned) [WX106], the half-inhibitory concentration (IC50) against PI3Kα turned out to be 19.5 nM; on PI3Kβ, 736 nM; in test [1] it was 460 nM.
For the compound `Cc1ncc(-c2ccc3ncn(CCN(C)C)c(=O)c3c2)cc1NS(=O)(=O)c1ccc(F)cc1Cl` [R010, reference compound], the IC50 is 34.4 nM at PI3Kα, 345 nM on PI3Kβ, 45.8 nM against PI3Kδ and 421 nM against PI3Kγ.
As for `CNC(=O)CCCn1cnc2ccc(-c3cnc(C)c(NS(=O)(=O)c4ccc(F)cc4Cl)c3)cc2c1=O` [WX002], the IC50 on PI3Kα was 2.84 nM; against PI3Kβ, 216 nM; on PI3Kδ, 12.4 nM; on PI3Kγ, 33.7 nM.
Turning to `Cc1ncc(-c2ccc3ncn(CCCC(=O)N4CCCC4)c(=O)c3c2)cc1NS(=O)(=O)c1ccc(F)cc1Cl` [WX005], the half-inhibitory concentration (IC50) on PI3Kα is 4.39 nM; against PI3Kβ, 244 nM; on PI3Kδ, 7.42 nM; against PI3Kγ, 49.7 nM.
For `Cc1nc(C)c(S(=O)(=O)Nc2cc(-c3ccc4ncn(CCCC(=O)N5CCCC5)c(=O)c4c3)cnc2C)s1` [WX007] the same measures were 1.49 nM, 159 nM, 1.85 nM and 29.1 nM.
The matching figures for `COc1ncc(-c2ccc3ncn(CC(F)(F)C(N)=O)c(=O)c3c2)cc1NS(=O)(=O)c1ccc(F)cc1Cl` [WX041]: 2.66 nM, 124 nM, 7.16 nM and 8.37 nM.
Regarding `CNC(=O)[C@H](C)Cn1cnc2ccc(-c3cnc(OC)c(NS(=O)(=O)c4ccc(Cl)c(C)c4)c3)cc2c1=O` [WX190], the IC50 on PI3Kα is 13.2 nM; on PI3Kβ it was 205 nM.
For `COc1ncc(-c2ccc3ncn(CCCC(=O)N4CCCC4)c(=O)c3c2)cc1NS(=O)(=O)c1ccc(F)cc1Cl` [WX199], the half-maximal inhibitory concentration (IC50) at PI3Kα worked out at 4.86 nM; against PI3Kβ it was 199 nM.
As for `CNC(=O)C1(Cn2cnc3ccc(-c4cnc(OC)c(NS(=O)(=O)c5ccc(F)cc5Cl)c4)cc3c2=O)CC1` [WX202], the IC50 worked out at 6.71 nM against PI3Kα, 88.5 nM at PI3Kβ, 4.36 nM on PI3Kδ and 44.1 nM against PI3Kγ.
Turning to `CNC(=O)[C@H](C)Cn1cnc2ccc(-c3cnc(OC)c(NS(=O)(=O)c4ccc(OC)cc4)c3)cc2c1=O` [WX203], the 50% inhibitory concentration (IC50) against PI3Kα was 12.8 nM; on PI3Kβ, 595 nM.
For `CNC(=O)[C@@H](C)Cn1cnc2ccc(-c3cnc(OC)c(NS(=O)(=O)c4ccccc4F)c3)cc2c1=O` [WX205] the same measures were 3.7 nM and 97.3 nM.
The matching figures for `CNC(=O)[C@@H](C)Cn1cnc2ccc(-c3cnc(OC)c(NS(=O)(=O)c4c(Cl)cccc4Cl)c3)cc2c1=O` [WX207]: 0.85 nM and 20.5 nM.
